The record followed here is PMC2639639, “Identification of Three Classes of Heteroaromatic Compounds with Activity against Intracellular Trypanosoma cruzi by Chemical Library Screening” (PLoS Neglected Tropical Diseases, 2009).

The first experiment relates to T. cruzi (Tulahuen strain) expressing β-galactosidase. The experiment can be described thus: T. cruzi growth inhibition assay (β-gal activity, infection of NIH/3T3 cells). It counts as cell-based, Trypanosoma cruzi. The following applies: Trypanosoma cruzi, TULAHUEN, NIH3T3, 96 h, read-out: IC50 Intracellular growth. As to the method:
NIH/3T3 cells and parasites were harvested, washed once and resuspended in DMEM supplemented with 2% FBS and Pen-Strep-Glut. […] Different numbers of NIH/3T3 cells were seeded in 96-well plates. After 3 h, compounds were added at the indicated concentrations and mixed by pipetting. BZN tablets (Rochagan, Roche) dissolved in DMSO and 4 µM Amphotericin B solution (Sigma-Aldrich) were used as positive controls. Different numbers of T. cruzi parasites were added in a final volume of 200 µl/well. After 4 days, 50 µl of PBS containing 0.5% of the detergent NP40 and 100 µM Chlorophenol Red-β-D-galactoside (CPRG) (Fluka) were added. Plates were incubated at 37°C for 4 h and absorbance was read at 590 nm using a Tecan Spectra Mini plate reader.
To calculate the Z′ factor, we used the formula described by Zhang et al.: Z′ = 1−[(3σc++3σc−) / |μc+−μc−|] where σc+ = standard deviation (SD) of positive control, σc− = SD of negative control, μc+ = mean of positive control, μc− = mean of negative control. Subsequently, the best ratio was used for all growth inhibition assays (50.000 cells and parasites, multiplicity of infection (MOI) 1∶1).
To determine IC50 values, β-gal activity (Abs590) was plotted against compound concentration for each compound. The IC50 was determined as the concentration at which the activity (absorbance) was half that in the absence of compound. Mean IC50 values are the average of independent experiments performed in triplicate on three different days.
The term IC50 denotes the concentration that inhibits the measured activity by half. For the molecule `COc1cc(NC(=O)Cn2cnc([N+](=O)[O-])n2)cc([N+](=O)[O-])c1` [NT2, N-(3-methoxy-5-nitrophenyl)-2-(3-nitro-1H-1,2,4-triazol-1-yl)acetamide], the half-inhibitory concentration (IC50) stood at 2630 ± 808 nM. In the case of `O=C(Cn1cnc([N+](=O)[O-])n1)Nc1cc(Oc2cncc(Cl)c2)cc([N+](=O)[O-])c1` [NT4, N-{3-[(5-chloro-3-pyridinyl)oxy]-5-nitrophenyl}-2-(3-nitro-1H-1,2,4-triazol-1-yl)acetamide], the IC50 was determined as 1270 ± 251 nM. Consider `O=C(Cn1cnc([N+](=O)[O-])n1)Nc1cc(Oc2cccnc2)cc([N+](=O)[O-])c1` [NT3, N-[3-nitro-5-(3-pyridinyloxy)phenyl]-2-(3-nitro-1H-1,2,4-triazol-1-yl)acetamide], for which the half-maximal inhibitory concentration (IC50) was determined as 4920 ± 1280 nM.

Still in this experiment, the particulars now being: Trypanosoma cruzi, TULAHUEN, NIH3T3, 96 h, β-gal T. cruzi Tulahuen in NIH/3T3 cells, 4 days; read-out: IC50 T. cruzi growth inhibition.
Turning to `COc1ccc(-c2ccc(C=NNC(=O)c3ccccn3)o2)cc1Cl` [PCH8, N′-{[5-(3-chloro-4-methoxyphenyl)-2-furyl]methylene}-2-pyridinecarbohydrazide], the half-inhibitory concentration (IC50) was 1600 nM.

Still in this experiment, the particulars now being: Trypanosoma cruzi, TULAHUEN, NIH3T3, 96 h, β-gal T. cruzi Tulahuen, 50.000 NIH/3T3 cells and parasites (MOI 1:1), 4 days; read-out: IC50 Intracellular growth.
Take `Cc1cc(OCCCCn2ccnc2)cc(C)c1Cl` [CX3, 1-[4-(4-chloro-3,5-dimethylphenoxy)butyl]-1H-imidazole]: the IC50 was determined as 5.1 nM. In the case of `Cc1cc(Cl)cc(C)c1OCCCCn1ccnc1` [CX6, 1-[4-(4-chloro-2,6-dimethylphenoxy)butyl]-1H-imidazole], the half-inhibitory concentration (IC50) came out at 71.6 ± 37 nM. On to `Cc1cc(Cl)cc(C)c1OCCCCCn1ccnc1` [CX5, 1-[5-(4-chloro-2,6-dimethylphenoxy)pentyl]-1H-imidazole], for which the IC50 was 20.5 nM.

Consider `O=C(CCCn1cnc([N+](=O)[O-])n1)Nc1cc(C(F)(F)F)ccc1Cl` [NT8, N-[2-chloro-5-(trifluoromethyl)phenyl]-4-(3-nitro-1H-1,2,4-triazol-1-yl)butanamide], for which the half-inhibitory concentration (IC50) turned out to be 983 ± 388 nM. For `O=C(NN=Cc1ccc(-c2cccc(Cl)c2)o1)c1ccccn1` [PCH5, N′-{[5-(3-chlorophenyl)-2-furyl]methylene}-2-pyridinecarbohydrazide], the IC50 was 29 ± 20 nM. For `O=C(NN=Cc1ccc(-c2ccccc2Cl)o1)c1cccnc1` [PCH10, N′-{[5-(2-chlorophenyl)-2-furyl]methylene}nicotinohydrazide], the IC50 is 720 ± 183 nM. Turning to `O=C(NN=Cc1ccc(-c2cc(Cl)ccc2Cl)o1)c1ccccc1` [PCH9, N′-{[5-(2,5-dichlorophenyl)-2-furyl]methylene}benzohydrazide], the IC50 was 960 ± 300 nM.

With `O=C(NN=Cc1ccc(-c2cccc(Cl)c2Cl)o1)c1cccnc1` [PCH2, N′-{[5-(2,3-dichlorophenyl)-2-furyl]methylene}nicotinohydrazide], the IC50 turned out to be 1930 ± 707 nM. As for `O=C(Cn1cnc([N+](=O)[O-])n1)Nc1ccc(Cl)cc1C(F)(F)F` [NT7, N-[4-chloro-2-(trifluoromethyl)phenyl]-2-(3-nitro-1H-1,2,4-triazol-1-yl)acetamide], the IC50 was found to be 1290 ± 463 nM. On the same count and under the same terms, then `O=C(NN=Cc1ccc(-c2ccc(Cl)c(Cl)c2)o1)c1ccccn1` [PCH7, N′-{[5-(3,4-dichlorophenyl)-2-furyl]methylene}-2-pyridinecarbohydrazide], with 35 ± 20 nM; and `O=C(Cn1cnc([N+](=O)[O-])n1)Nc1cc(C(F)(F)F)ccc1Cl` [NT6, N-[2-chloro-5-(trifluoromethyl)phenyl]-2-(3-nitro-1H-1,2,4-triazol-1-yl)acetamide], with 1130 ± 378 nM; and `O=C(CCCn1cnc([N+](=O)[O-])n1)Nc1ccccc1C(F)(F)F` [NT9, 4-(3-nitro-1H-1,2,4-triazol-1-yl)-N-[2-(trifluoromethyl)phenyl]butanamide], with 3020 ± 1390 nM.

For `O=C(NN=Cc1ccc(-c2cccc(Cl)c2Cl)o1)c1ccncc1` [PCH3, N′-{[5-(2,3-dichlorophenyl)-2-furyl]methylene}isonicotinohydrazide], the IC50 is above 10000 nM. On the same count and under the same terms, then `COc1ccc(-c2ccc(C=NNC(=O)c3ccccn3)o2)cc1Cl` [PCH8, N′-{[5-(3-chloro-4-methoxyphenyl)-2-furyl]methylene}-2-pyridinecarbohydrazide], with 1680 ± 490 nM; and `O=C(Cn1cnc([N+](=O)[O-])n1)Nc1cccc(C(F)(F)F)c1` [NT5, 2-(3-nitro-1H-1,2,4-triazol-1-yl)-N-[3-(trifluoromethyl)phenyl]acetamide], with 1060 ± 385 nM.
